Source: patent publication US8952024B2, “Herbicidal pyrimidone derivatives” (E I du Pont de Nemours and Company, priority 2009, dated 2015)

Legend:
Type in all cases: in vivo
[1] = tested on: goosegrass (Eleusine indica); test: Test B pre-/postemergence plant response; settings: Preemergence, 62 g ai/ha; scale 0 to 100, 0 no effect, 100 complete control
[2] = tested on: canarygrass (Phalaris minor); test: Test B postemergence plant response; settings: Postemergence
Procedure, shortened: (§1)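 Plants at the 1- to 4-leaf stage (2 to 18 cm tall), grown in pots of peat moss/vermiculite medium with wetting agent and starter nutrients, received postemergence applications of test chemicals. After 13 to 15 days in a greenhouse, injury was rated visually against untreated controls on a 0 (no effect) to 100 (complete control) scale.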

[3] = tested on: winter barley (Hordeum vulgare); test: Test B postemergence plant response; settings: Postemergence
Procedure, shortened: as §1

[4] = tested on: windgrass (Apera spica-venti); test: Test B postemergence plant response; settings: Postemergence, scale 0 (no effect) to 100 (complete control)
Procedure, shortened: as §1

[5] = tested on: chickweed (Stellaria media); test: Test B postemergence plant response; settings: Postemergence
Procedure, shortened: as §1

[6] = tested on: wheat (Triticum aestivum); test: Test A pre-/postemergence plant response
Procedure, shortened: (§2)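 Greenhouse pots of loam/sand received directed preemergence soil sprays or postemergence sprays (plants 2–10 cm, 1–2 leaf stage), compounds formulated in non-phytotoxic solvent with surfactant. Injury was rated visually versus untreated controls after about ten days on a 0 (no effect) to 100 (complete control) scale.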

[7] = tested on: morningglory (Ipomoea spp.); test: Test A pre-/postemergence plant response
Procedure, shortened: as §2

[8] = tested on: corn (Zea mays); test: Test A pre-/postemergence plant response
Procedure, shortened: as §2

[9] = tested on: giant foxtail (Setaria faberii); test: Test A pre-/postemergence plant response
Procedure, shortened: as §2

[10] = tested on: velvetleaf (Abutilon theophrasti); test: Test A pre-/postemergence plant response
Procedure, shortened: as §2

[11] = tested on: large crabgrass (Digitaria sanguinalis); test: Test A pre-/postemergence plant response
Procedure, shortened: as §2

[12] = tested on: nightshade (eastern black nightshade, Solanum ptycanthum); test: Test B pre-/postemergence plant response; settings: Preemergence
Procedure, shortened: (§3)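 Plants treated either at seeding (loam/sand soil) or postemergence at 2 to 18 cm height, using a surfactant-containing non-phytotoxic solvent formulation. Evaluation was visual after 13 to 15 days, 0 to 100 scale relative to controls.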

[13] = tested on: galium (catchweed bedstraw, Galium aparine); test: Test B pre-/postemergence plant response; settings: Preemergence
Procedure, shortened: as §3

[14] = tested on: sunflower (common oilseed sunflower, Helianthus annuus); test: Test B pre-/postemergence plant response; settings: Preemergence
Procedure, shortened: as §3

[15] = 31 g ai/ha, scale 0 to 100 (0 no effect, 100 complete control)
[16] = 62 g ai/ha, scale 0 (no effect) to 100 (complete control), 13 to 15 days
[17] = 125 g ai/ha, visual rating after 13 to 15 days, scale 0 (no effect) to 100 (complete control)
[18] = Postemergence, 125 g ai/ha, visual injury, 0 to 100 scale (0 no effect, 100 complete control), approx. ten days
[19] = Postemergence, 500 g ai/ha, 0 to 100 scale, 0 = no effect, 100 = complete control, approx. ten days
[20] = Preemergence, 125 g ai/ha, 0 to 100 scale, 0 = no effect, 100 = complete control
[21] = Preemergence, 500 g ai/ha, visual injury, 0 to 100 scale (0 no effect, 100 complete control), approx. ten days
[22] = 62 g ai/ha, scale 0 to 100, 0 no effect, 100 complete control

Cc1ccc(-n2c(-c3cccc(Cl)c3)ncc(C(=O)C3=C(O)CCCC3=O)c2=O)cc1 [Compound 39]
5: Plant response rating, Windgrass ([4]; 125 g ai/ha, visual rating after 13 to 15 days)
50: Plant response rating, Foxtail, Giant [9, 20] | Plant response rating, Nightshade [12, 15]
0: Plant response rating, Canarygrass [2, 15] | Plant response rating, Canarygrass [2, 16] | Plant response rating, Canarygrass [2, 17] | Plant response rating, Barley [3, 15] | Plant response rating, Barley [3, 16] | Plant response rating, Barley [3, 17] | Plant response rating, Windgrass ([4]; 62 g ai/ha, 13 to 15 days) | Wheat plant response rating [6, 18] | Plant response rating, Wheat [6, 19] | Plant response rating, Wheat [6, 20] | Plant response rating, Wheat [6, 21] | Corn plant response rating [8, 18] | Plant response rating, Corn [8, 20] | Plant response rating, Corn [8, 21] | Plant response rating, Sunflower [14, 15]
20: Canarygrass plant response rating ([2]; 250 g ai/ha, scale 0 to 100)
10: Barley plant response rating ([3]; 250 g ai/ha, scale 0 to 100)
98: Plant response rating, Chickweed [5, 15]
90: Plant response rating, Morningglory [7, 19] | Plant response rating, Foxtail, Giant [9, 19] | Plant response rating, Foxtail, Giant [9, 21] | Plant response rating, Velvetleaf [10, 21] | Plant response rating, Crabgrass, Large [11, 19] | Plant response rating, Crabgrass, Large [11, 21]
25: Sunflower plant response rating ([14]; 125 g ai/ha, 0 to 100 scale)
80: Morningglory plant response rating [7, 18] | Foxtail, Giant plant response rating [9, 18] | Crabgrass, Large plant response rating [11, 18] | Plant response rating, Galium [13, 22]
85: Plant response rating, Galium ([13]; 250 g ai/ha, 0 to 100 scale) | Galium plant response rating ([13]; 125 g ai/ha, 0 to 100 scale)
40: Plant response rating, Morningglory [7, 20] | Plant response rating, Corn [8, 19]
60: Plant response rating, Morningglory [7, 21] | Plant response rating, Crabgrass, Large [11, 20]
65: Plant response rating, Sunflower ([14]; 250 g ai/ha, 0 to 100 scale)
100: Plant response rating, Goosegrass [1] | Plant response rating, Chickweed [5, 16] | Plant response rating, Chickweed [5, 17] | Chickweed plant response rating ([5]; 250 g ai/ha, scale 0 to 100) | Velvetleaf plant response rating [10, 18] | Plant response rating, Velvetleaf [10, 19] | Plant response rating, Nightshade ([12]; 250 g ai/ha, 0 to 100 scale) | Plant response rating, Nightshade [12, 22] | Nightshade plant response rating ([12]; 125 g ai/ha, 0 to 100 scale)
70: Plant response rating, Velvetleaf [10, 20] | Plant response rating, Galium [13, 15]
